Results taken from ChEMBL document CHEMBL5523677, “Discovery of ASP6918, a KRAS G12C inhibitor: Synthesis and structure-activity relationships of 1-{2,7-diazaspiro[3.5]non-2-yl}prop-2-en-1-one derivatives as covalent inhibitors with good potency and oral activity for the treatment of solid tumors” (Bioorg Med Chem, 2024).
Values belong to the molecule of their own block, whether it stands above or below them.

How the values were obtained:
[1] = Inhibition of ERK phosphorylation in KRAS-G12C mutant positive human NCI-H1373 cells incubated for 2 hrs by ELISA; assay type: cell-based
[2] = Inhibition of biotinylated GDP-bound Avi-tagged KRAS G12C mutant (1 to 185 residues)/SOS/GST-tagged c-Raf (unknown origin) complex formation incubated for 1 hr in presence of GTP by fluorescence based analysis; parameters: species or system Homo sapiens
[3] = tested on: NCI-H1373; test: Antitumor activity against KRAS G12C-positive human NCI-H1373 cells xenografted in male nude mouse assessed as tumor regression at 40 mg/kg, po administered once daily for 13 days and measured on day 14 relative to control; assay type: functional; conditions: time 14 day
[4] = tested on: NCI-H1373; test: Antitumor activity against KRAS G12C-positive human NCI-H1373 cells xenografted in male nude mouse assessed as inhibition of tumor growth at 60 mg/kg, po administered once daily for 13 days and measured on day 14 relative to control; assay type: functional; conditions: NCI-H1373, 336 h, time 14 day, read-out: TGI
[5] = Drug concentration in plasma of male nude mouse xenografted with KRAS G12C mutant positive human NCI-H1373 cells at 40 mg/kg, po administered as single dose and measured after 6 hrs; assay type: ADME, organism-based
[6] = tested on: NCI-H1373; test: Antitumor activity against KRAS G12C mutant positive human NCI-H1373 cells xenografted in male nude mouse assessed as inhibition of tumor growth at 10 mg/kg, sc administered once daily for 13 days and measured on day 14 relative to control; assay type: functional; conditions: NCI-H1373, 336 h, time 14 day, read-out: TGI
[7] = tested on: NCI-H1373; test: Antitumor activity against KRAS G12C mutant positive human NCI-H1373 cells xenografted in male nude mouse assessed as tumor regression at 10 mg/kg, sc administered once daily for 13 days and measured on day 14 relative to control; assay type: functional; conditions: time 14 day
[8] = tested on: NCI-H1373; test: Antitumor activity against KRAS G12C-positive human NCI-H1373 cells xenografted in male nude mouse assessed as inhibition of tumor growth at 20 mg/kg, po administered once daily for 13 days and measured on day 14 relative to control; assay type: functional; conditions: NCI-H1373, 336 h, time 14 day, read-out: TGI
[9] = In vivo inhibition of ERK phosphorylation in male nude mouse xenografted with KRAS G12C mutant positive human NCI-H1373 cells assessed as reduction in pERK level in tumor at 60 mg/kg, po administered as single dose and measured after 6 hrs relative to control; assay type: functional
[10] = tested on: NCI-H1373; test: Antitumor activity against KRAS G12C-positive human NCI-H1373 cells xenografted in male nude mouse assessed as inhibition of tumor growth at 40 mg/kg, po administered once daily for 13 days and measured on day 14 relative to control; assay type: functional; conditions: NCI-H1373, 336 h, time 14 day, read-out: TGI
[11] = Aqueous solubility of compound in Japanese Pharmacopoeia 2nd fluid at pH 6.8 at 130 umol/L incubated for 20 hrs by liquid chromatography; assay type: physicochemical; conditions: dose 130 µmol/L
[12] = Inhibition of ERK phosphorylation in human A-375 cells harboring wild type KRAS and mutant BRAF incubated for 2 hrs by ELISA; assay type: cell-based; conditions: A-375, 2 h
[13] = In vivo inhibition of ERK phosphorylation in male nude mouse xenografted with KRAS G12C mutant positive human NCI-H1373 cells assessed as reduction in pERK level in tumor at 40 mg/kg, po administered as single dose and measured after 6 hrs relative to control; assay type: functional
[14] = tested on: NCI-H1373; test: Antitumor activity against KRAS G12C-positive human NCI-H1373 cells xenografted in male nude mouse assessed as tumor regression at 60 mg/kg, po administered once daily for 13 days and measured on day 14 relative to control; assay type: functional; conditions: time 14 day
[15] = tested on: NCI-H1373; test: Cytotoxicity against KRAS G12C mutant positive human NCI-H1373 cells assessed as inhibition of cell growth incubated for 6 days by Celltiter-Glo 2.0 assay; assay type: functional, cell-based
[16] = In vivo inhibition of ERK phosphorylation in male nude mouse xenografted with KRAS G12C mutant positive human NCI-H1373 cells assessed as reduction in pERK level in tumor at 20 mg/kg, po administered as single dose and measured after 6 hrs relative to control; assay type: functional
[17] = tested on: NCI-H1373; test: Antitumor activity against KRAS G12C-positive human NCI-H1373 cells xenografted in male nude mouse assessed as inhibition of tumor growth at 10 mg/kg, po administered once daily for 13 days and measured on day 14 relative to control; assay type: functional; conditions: NCI-H1373, 336 h, time 14 day, read-out: TGI
[18] = Drug concentration in tumor of male nude mouse xenografted with KRAS G12C mutant positive human NCI-H1373 cells at 3 mg/kg, sc administered as single dose and measured after 6 hrs; assay type: ADME, organism-based, Neoplasm; conditions: read-out: Ct
[19] = Drug concentration in tumor of male nude mouse xenografted with KRAS G12C mutant positive human NCI-H1373 cells at 40 mg/kg, po administered as single dose and measured after 6 hrs; assay type: ADME, organism-based, Neoplasm; conditions: read-out: Ct
[20] = Metabolic stability in mouse liver microsomes assessed as intrinsic clearance at 0.1 to 0.2 micromol/L incubated for 30 mins in presence of NADPH-generating system by LC-MS/MS analysis; assay type: ADME, Microsome; conditions: dose 0.1-0.2 µmol/L, read-out: CLH
[21] = Toxicity in male nude mouse xenografted with KRAS G12C-positive human NCI-H1373 cells assessed as reduction in body weight at 10 to 60 mg/kg, po administered once daily for 13 days; assay type: organism-based; conditions: in vivo, 312 h, dose 10-60 mg/kg, time 13 day
[22] = In vivo inhibition of ERK phosphorylation in male nude mouse xenografted with KRAS G12C mutant positive human NCI-H1373 cells assessed as reduction in pERK level in tumor at 3 mg/kg, sc administered as single dose and measured after 6 hrs relative to control; assay type: functional
[23] = Drug concentration in plasma of male nude mouse xenografted with KRAS G12C mutant positive human NCI-H1373 cells at 3 mg/kg, sc administered as single dose and measured after 6 hrs; assay type: ADME, organism-based
[24] = Metabolic stability in human liver microsomes assessed as intrinsic clearance at 0.1 to 0.2 micromol/L incubated for 30 mins in presence of NADPH-generating system by LC-MS/MS analysis; assay type: ADME, Microsome; conditions: dose 0.1-0.2 µmol/L, read-out: CLH
[25] = Drug concentration in tumor of male nude mouse xenografted with KRAS G12C mutant positive human NCI-H1373 cells at 20 mg/kg, po administered as single dose and measured after 6 hrs; assay type: ADME, organism-based, Neoplasm; conditions: read-out: Ct
[26] = Drug concentration in plasma of male nude mouse xenografted with KRAS G12C mutant positive human NCI-H1373 cells at 60 mg/kg, po administered as single dose and measured after 6 hrs; assay type: ADME, organism-based
[27] = Drug concentration in plasma of male nude mouse xenografted with KRAS G12C mutant positive human NCI-H1373 cells at 20 mg/kg, po administered as single dose and measured after 6 hrs; assay type: ADME, organism-based
[28] = Lipophilicity, LogD of compound in 1-Octanol/PBS at pH 7.4 by LC-MS analysis; assay type: physicochemical
[29] = tested on: NCI-H1373; test: Antitumor activity against KRAS G12C mutant positive human NCI-H1373 cells xenografted in male nude mouse assessed as inhibition of tumor growth at 3 mg/kg, sc administered once daily for 13 days and measured on day 14 relative to control; assay type: functional; conditions: NCI-H1373, 336 h, time 14 day, read-out: TGI
[30] = Drug concentration in tumor of male nude mouse xenografted with KRAS G12C mutant positive human NCI-H1373 cells at 60 mg/kg, po administered as single dose and measured after 6 hrs; assay type: ADME, organism-based, Neoplasm; conditions: read-out: Ct

IC50 ([1]; Homo sapiens, NCI-H1373, 2 h): 35 nM
IC50 [2]: 57 nM
Compound: C=CC(=O)N1CC2(CCN(c3nc(OC4CCN(CC)CC4)nc4c(OC5CCC5)c(-c5c(C)ccc6[nH]ncc56)c(Cl)cc34)CC2)C1

concentration at 6 h [5]: 120 nM
solubility at 20 h, 130 µM [11]: > 100 µM
IC50 [12]: > 10000 nM
concentration at 6 h [18]: 170 nM
IC50 ([1]; Homo sapiens, NCI-H1373, 2 h): 5 nM
IC50 ([1]; nci-h1373): 4 nM
concentration at 6 h [19]: 50 nM
CLint scaled [20]: 119 mL/min/kg
concentration at 6 h [23]: 280 nM
CLint scaled [24]: 130 mL/min/kg
concentration at 6 h [25]: 7 nM
concentration at 6 h [26]: 110 nM
concentration at 6 h [27]: 21 nM
logD [28]: 3.7
concentration at 6 h [30]: 81 nM
Compound: C=CC(=O)N1CC2(CCN(c3nc(OC4CCN(C)CC4)nc4c(OCC)c(-c5c(C)ccc6[nH]ncc56)c(C=C)cc34)CC2)C1
Activity [3]: 49%
inhibition in vivo at 60 mg/kg [4]: > 100%
inhibition in vivo at 10 mg/kg [6]: > 100%
Activity [7]: 73%
inhibition in vivo at 20 mg/kg [8]: 68%
inhibition in vivo at 60 mg/kg [9]: 80%
inhibition in vivo at 40 mg/kg [10]: > 100%
inhibition in vivo at 40 mg/kg [13]: 72%
Activity [14]: 73%
IC50 ([15]; Homo sapiens, NCI-H1373, 144 h): 8 nM
IC50 ([15]; nci-h1373): 6 nM
inhibition in vivo at 20 mg/kg [16]: 38%
inhibition in vivo at 10 mg/kg [17]: 27%
Activity [21]: Non-Toxic
inhibition in vivo at 3 mg/kg [22]: 72%
inhibition in vivo at 3 mg/kg [29]: 82%

solubility at 20 h, 130 µM [11]: > 100 µM
IC50 [12]: > 10000 nM
IC50 ([1]; Homo sapiens, NCI-H1373, 2 h): 96 nM
CLint scaled [20]: 115 mL/min/kg
logD [28]: 3.3
Compound: C=CC(=O)N1CC2(CCN(c3nc(OC4CCN(C)CC4)nc4c(Cl)c(-c5c(C)ccc6[nH]ncc56)c(F)cc34)CC2)C1
IC50 ([15]; Homo sapiens, NCI-H1373, 144 h): 100 nM

IC50 ([1]; Homo sapiens, NCI-H1373, 2 h): 49 nM
IC50 [2]: 50 nM
Compound: C=CC(=O)N1CC2(CCN(c3nc(OC4CCN(CC)CC4)nc4c(OCC)c(-c5c(C)ccc6[nH]ncc56)c(Cl)cc34)CC2)C1

solubility at 20 h, 130 µM [11]: > 100 µM
IC50 [12]: > 10000 nM
IC50 ([1]; Homo sapiens, NCI-H1373, 2 h): 5 nM
CLint scaled [20]: 342 mL/min/kg
logD [28]: > 4.3
Compound: C=CC(=O)N1CC2(CCN(c3nc(OC4CCN(C)CC4)nc4c(OC5CCC5)c(-c5c(C)ccc6[nH]ncc56)c(C=C)cc34)CC2)C1
IC50 ([15]; Homo sapiens, NCI-H1373, 144 h): 12 nM

IC50 ([1]; Homo sapiens, NCI-H1373, 2 h): 140 nM
IC50 [2]: 100 nM
Compound: C=CC(=O)N1CC2(CCN(c3nc(OC4CCN(CC)CC4)nc4c(F)c(-c5c(C)ccc6[nH]ncc56)c(C(=C)C)cc34)CC2)C1

IC50 [2]: 250 nM
Compound: C=CC(=O)N1CC2(CCN(c3nc(OC4CCN(CC)CC4)nc4cc(-c5c(C)ccc6[nH]ncc56)c(Cl)cc34)CC2)C1

IC50 ([1]; Homo sapiens, NCI-H1373, 2 h): 75 nM
IC50 [2]: 46 nM
Compound: C=CC(=O)N1CC2(CCN(c3nc(OC4CCN(CC)CC4)nc4c(OC)c(-c5c(C)ccc6[nH]ncc56)c(Cl)cc34)CC2)C1

IC50 ([1]; Homo sapiens, NCI-H1373, 2 h): 35 nM
IC50 [2]: 56 nM
Compound: C=CC(=O)N1CC2(CCN(c3nc(OC4CCN(CC)CC4)nc4c(OC5CC5)c(-c5c(C)ccc6[nH]ncc56)c(Cl)cc34)CC2)C1

IC50 [2]: 280 nM
Compound: C=CC(=O)N1CC2(CCN(c3nc(OC4CCN(CC)CC4)nc4c(C#N)c(-c5c(C)ccc6[nH]ncc56)c(Cl)cc34)CC2)C1

IC50 ([1]; Homo sapiens, NCI-H1373, 2 h): 160 nM
IC50 [2]: 59 nM
Compound: C=CC(=O)N1CC2(CCN(c3nc(OC4CCN(CC)CC4)nc4c(F)c(-c5c(C)ccc6[nH]ncc56)c(CC)cc34)CC2)C1

IC50 ([1]; Homo sapiens, NCI-H1373, 2 h): 31 nM
IC50 [2]: 51 nM
Compound: C=CC(=O)N1CC2(CCN(c3nc(OC4CCN(CC)CC4)nc4c(F)c(-c5c(C)ccc6[nH]ncc56)c(C5CC5)cc34)CC2)C1

IC50 [12]: > 10000 nM
IC50 ([1]; Homo sapiens, NCI-H1373, 2 h): 39 nM
logD [28]: 3.2
Compound: C=CC(=O)N1CC2(CCN(c3nc(OC4CCN(C)CC4)nc4c(OC)c(-c5c(C)ccc6[nH]ncc56)c(C=C)cc34)CC2)C1
IC50 ([15]; Homo sapiens, NCI-H1373, 144 h): 52 nM

IC50 [2]: > 1000 nM
Compound: C=CC(=O)N1CC2(CCN(c3nc(OC4CCN(CC)CC4)nc4c(F)c(-c5c(C)ccc6[nH]ncc56)c(-c5ccccc5)cc34)CC2)C1

IC50 ([1]; Homo sapiens, NCI-H1373, 2 h): 37 nM
IC50 [2]: 41 nM
Compound: C=CC(=O)N1CC2(CCN(c3nc(OC4CCN(CC)CC4)nc4c(F)c(-c5c(C)ccc6[nH]ncc56)c(C=C)cc34)CC2)C1

IC50 ([1]; Homo sapiens, NCI-H1373, 2 h): 120 nM
IC50 [2]: 56 nM
Compound: C#Cc1cc2c(N3CCC4(CC3)CN(C(=O)C=C)C4)nc(OC3CCN(CC)CC3)nc2c(F)c1-c1c(C)ccc2[nH]ncc12
